Source: patent US8506928B2, “Methods and compounds for targeting tissues” (The Regents of the University of California, priority 2007, dated 2013)
Residues, ends and D or L forms follow the SMILES beside them.

Key:
heart endothelium = details: described in [4]; cited from earlier work
[1] = Pre-administration of RES inhibitors before CRPPR-3 liposomes; assay type: in vivo, mice; details: for decrease of accumulation within the heart: 90 minute time point, pre-administration before CRPPR-3 liposomes; for ratio of radioactivity in the heart with and without inhibitors: well counts at 90 minutes after CRPPR-3 liposome injection
Procedure: Blank liposomes: blank liposomes (DPPC:DSPE-PEG2000=98:2 (mol/mol), with diameter 100 nm) with 300 μg lipids (12 mg/kg) in 100 μl saline were injected 15 minutes before the radiolabeled targeted liposomes. Polyinosinic acid (PI): PI (P4154), purchased from Sigma-Aldrich, was dissolved in 0.9% sterile injection saline at 2 mg/ml. A small amount of sodium hydroxide solution was added to dissolve PI powder and the pH of the PI solution was adjusted to 7.4 with HCl solution. 5 μl of PI solution (˜10 μg of PI, 0.4 mg/kg) was diluted with 100 μl saline and injected 1 minute before the injection of the radiolabeled targeted liposomes. Control animals received an equal volume of saline solution. Clodronate liposomes: Clodronate liposomes were prepared as in [21]. 100 μl of clodronate liposomes (˜0.05 mg, 2 mg/kg) were injected 24 hours in advance of the administration of radiolabeled targeted liposomes. Control animals received an equal volume of saline solution. Free CRPPR Peptide (SEQ ID NO: 1): 700 μg of CRPPR peptides (SEQ ID NO: 1) (25 mg/kg) were injected 1 minute before the administration of radiolabeled targeted liposomes. Control animals received an equal volume of injection saline solution.

| Molecule | target-to-muscle ratio, phage targeting (heart endothelium) | decrease of accumulation within the heart [1] [%] | ratio of radioactivity in the heart with and without inhibitors [1] |
| --- | --- | --- | --- |
| NC(N)=NCCC[C@H](NC(=O)[C@@H]1CCCN1C(=O)[C@@H]1CCCN1C(=O)[C@H](CCCN=C(N)N)NC(=O)[C@@H](N)CS)C(=O)O [CRPPR] (H-CRPPR-OH) | greater than 300 fold | ~19 | 0.81 |
| Polyinosinic acid [PI] |  | 41 | 0.59 |
